The text below walks through data of US20160185774A1, “Anti-Infective Compounds” (priority 2013, published 2016).

The term melting point denotes the temperature, or range, at which the solid turns liquid.

Each structure is given as a SMILES string. Values after ≈ are worked out from the molar mass of the structure shown. Some results are limits rather than exact numbers.

Data set [1] deals with M. tuberculosis. The data set can be described thus: microbe, parasite or virus in culture. It counts as cell-based. The following applies: Mycobacterium tuberculosis, 120 h; read-out: QUM (MIC80).

Take `CCc1nc2ccc(Cl)cn2c1C(=O)NCc1ccc(N2CCC(C(=O)Cc3ccc(F)cc3)CC2)cc1` [Compound 244]: the melting point was in the range of 216.2 to 220.7 °C.

For the molecule `CCc1nc2ccc(Cl)cn2c1C(=O)NCc1cccc(N(C)Cc2ccc(OC(F)(F)F)cc2)c1` [Compound 247], the melting point is > 142.3 °C (dec.). Also, the MIC80 in data set [1] is 1 to 20 µM (≈ 0.517 to 10.3 µg/mL).

In the case of `CCc1nc2ccc(Cl)cn2c1C(=O)NCc1cccc(OCc2ccc(OC(F)(F)F)cc2)c1` [Compound 248], the melting point was > 142.7 °C (dec.). Besides, the MIC80 in data set [1] fell in the range of 1 to 20 µM (≈ 0.504 to 10.1 µg/mL).

Consider `CCc1nc2ccc(Cl)cn2c1C(=O)NCc1cccc(N2CCC(c3ccc(OC(F)(F)F)cc3)CC2)c1` [Compound 249], for which the melting point fell in the range of 135.5 to 136.4 °C. Also, in data set [1], the MIC80 is more than 20 µM.

As for `CCc1nc2ccc(Cl)cn2c1C(=O)NCc1cccc(CC(=O)Nc2ccc(F)cc2)c1` [Compound 250], the melting point is > 198.8 °C (dec.). Also, in data set [1], the MIC80 is more than 20 µM.

Take `CCc1nc2ccccn2c1C(=O)NCc1ccc(CC2CCOCC2)cc1` [Compound 252]: the MIC80 in data set [1] is less than 1 µM.

For `CCc1nc2ccc(Cl)cn2c1C(=O)NCc1nc2ccc(Cl)cc2[nH]1` [Compound 260], the MIC80 in data set [1] is more than 20 µM.

As for `CCc1nc2cc(Cl)ccn2c1C(=O)NCc1ccc2c(c1)ncn2C` [Compound 272], in data set [1], the MIC80 was 1 to 20 µM (≈ 0.368 to 7.36 µg/mL).

`CCc1nc2ccc(Cl)cn2c1C(=O)NCc1ccc2cc[nH]c2c1` [Compound 273]: the MIC80 in data set [1] is less than 1 µM.

Take `CCc1nc2ccc(Cl)cn2c1C(=O)NCc1ccc2ncn(Cc3ccc(OC(F)(F)F)cc3)c2c1` [Compound 274]: in data set [1], the MIC80 was in the range of 1 to 20 µM (≈ 0.528 to 10.6 µg/mL).

For `CCc1nc2cc(Cl)ccn2c1C(=O)NCc1ccc2ncn(Cc3ccc(OC(F)(F)F)cc3)c2c1` [Compound 275], the MIC80 in data set [1] is more than 20 µM.

Take `CCc1nc2cc(Cl)ccn2c1C(=O)NCc1ccc2nc[nH]c2c1` [Compound 276]: the MIC80 in data set [1] was more than 20 µM.

In the case of `CCc1nc2cc(Cl)ccn2c1C(=O)NCc1ccc(NC(=O)NC(C)(C)C)cc1` [Compound 277], in data set [1], the MIC80 was more than 20 µM.

For `CCc1nc2ccc(Cl)cn2c1C(=O)NCc1ccc(NC(=O)NC(C)(C)C)cc1` [Compound 278], the MIC80 in data set [1] is 1 to 20 µM (≈ 0.428 to 8.56 µg/mL).

For `CCc1nc2cc(Cl)ccn2c1C(=O)NCc1csc(-c2ccc(OC(F)(F)F)cc2)n1` [Compound 279], the MIC80 in data set [1] is less than 1 µM.

`CCc1nc2ccc(Cl)cn2c1C(=O)NCc1csc(-c2ccc(OC(F)(F)F)cc2)n1` [Compound 280]: the MIC80 in data set [1] was less than 1 µM.

Consider `CCc1nc2c(F)cccn2c1C(=O)NCc1cccc(N2CCOCC2)c1` [Compound 281], for which the MIC80 in data set [1] lay within 1 to 20 µM (≈ 0.382 to 7.65 µg/mL).

As for `Cc1nc2cc(Cl)ccn2c1C(=O)NCc1ccc(N2CCC(c3ccc(F)cc3)CC2)cc1` [Compound 297], the MIC80 in data set [1] is less than 1 µM.

Consider `Cc1nc2cc(Cl)ccn2c1C(=O)NCc1ccc(N2CCC(c3ccc(C(F)(F)F)cc3)CC2)cc1` [Compound 298], for which, in data set [1], the MIC80 is less than 1 µM.

Regarding `Cc1ccc(C2CCN(c3ccc(CNC(=O)c4c(C)nc5cc(Cl)ccn45)cc3)CC2)cc1` [Compound 299], the MIC80 in data set [1] is less than 1 µM.

Regarding `Cc1nc2cc(Cl)ccn2c1C(=O)NCc1ccc(N2CCC(c3ccc(OC(F)(F)F)cc3)CC2)cc1` [Compound 300], the MIC80 in data set [1] is less than 1 µM.

In the case of `CCc1nc2ccc(Cl)cn2c1C(=O)NCc1ccc(C(=O)Nc2ccc(F)cc2)cc1` [Compound 301], the MIC80 in data set [1] is less than 1 µM.

Turning to `CCc1nc2cc(Cl)ccn2c1C(=O)NCc1ccc(C(=O)Nc2ccc(F)cc2)cc1` [Compound 302], the MIC80 in data set [1] was less than 1 µM.

Regarding `CCc1nc2ccc(Cl)cn2c1C(=O)NCc1ccc(C(=O)CN2CCOCC2)cc1` [Compound 303], the MIC80 in data set [1] was less than 1 µM.

On to `CCc1nc2cc(Cl)ccn2c1C(=O)NCc1ccc(C(=O)CN2CCOCC2)cc1` [Compound 304], for which, in data set [1], the MIC80 lay within 1 to 20 µM (≈ 0.441 to 8.82 µg/mL).

For the molecule `CCc1nc2ccc(Cl)cn2c1C(=O)NCc1ccc(C(=O)N(C)c2ccc(F)cc2)cc1` [Compound 305], the MIC80 in data set [1] lay within 1 to 20 µM (≈ 0.465 to 9.3 µg/mL).

In the case of `CCc1nc2cc(Cl)ccn2c1C(=O)NCc1ccc(C(=O)N(C)c2ccc(F)cc2)cc1` [Compound 306], the MIC80 in data set [1] lay within 1 to 20 µM (≈ 0.465 to 9.3 µg/mL).

On to `CCc1nc2ccc(Cl)cn2c1C(=O)NCc1ccc(N2CCOCC2)c(F)c1` [Compound 307], for which the MIC80 in data set [1] was less than 1 µM.

On to `CCc1nc2cc(Cl)ccn2c1C(=O)NCc1ccc(N2CCOCC2)c(F)c1` [Compound 308], for which, in data set [1], the MIC80 was less than 1 µM.

For `Cc1ccc(C2CCN(c3ccc(CNC(=O)c4c(C)nc5c(F)cccn45)cc3)CC2)cc1` [Compound 309], the MIC80 in data set [1] is less than 1 µM.

For the molecule `Cc1nc2c(F)cccn2c1C(=O)NCc1ccc(N2CCC(c3ccc(C(F)(F)F)cc3)CC2)cc1` [Compound 310], the MIC80 in data set [1] is less than 1 µM.

For `Cc1nc2c(F)cccn2c1C(=O)NCc1ccc(N2CCC(c3ccc(F)cc3)CC2)cc1` [Compound 311], the MIC80 in data set [1] was less than 1 µM.

As to `Cc1nc2c(F)cccn2c1C(=O)NCc1ccc(N2CCC(c3ccc(OC(F)(F)F)cc3)CC2)cc1` [Compound 312], in data set [1], the MIC80 is less than 1 µM.

Turning to `Cc1nc2ccc(F)cn2c1C(=O)NCc1ccc(N2CCC(c3ccc(F)cc3)CC2)cc1` [Compound 313], the MIC80 in data set [1] is less than 1 µM.

As to `Cc1ccc(C2CCN(c3ccc(CNC(=O)c4c(C)nc5ccc(F)cn45)cc3)CC2)cc1` [Compound 314], the MIC80 in data set [1] was less than 1 µM.

Regarding `Cc1nc2ccc(F)cn2c1C(=O)NCc1ccc(N2CCC(c3ccc(C(F)(F)F)cc3)CC2)cc1` [Compound 315], in data set [1], the MIC80 was less than 1 µM.

Take `Cc1nc2ccc(F)cn2c1C(=O)NCc1ccc(N2CCC(c3ccc(OC(F)(F)F)cc3)CC2)cc1` [Compound 316]: the MIC80 in data set [1] is less than 1 µM.

Consider `CCc1nc2ccc(Cl)cn2c1C(=O)NCc1ccc(C(=O)N(C)Cc2ccc(F)cc2)cc1` [Compound 317], for which, in data set [1], the MIC80 lay within 1 to 20 µM (≈ 0.479 to 9.58 µg/mL).

Take `CCc1nc2cc(Cl)ccn2c1C(=O)NCc1ccc(C(=O)N(C)Cc2ccc(F)cc2)cc1` [Compound 318]: the MIC80 in data set [1] was 1 to 20 µM (≈ 0.479 to 9.58 µg/mL).

With `CCc1nc2ccc(Cl)cn2c1C(=O)NCc1ccc(OCC23CC4CC(CC(C4)C2)C3)cc1` [Compound 319], in data set [1], the MIC80 is less than 1 µM.

As to `CCc1nc2cc(Cl)ccn2c1C(=O)NCc1ccc(OCC23CC4CC(CC(C4)C2)C3)cc1` [Compound 320], the MIC80 in data set [1] is less than 1 µM.

On to `CCc1nc2ccc(Cl)cn2c1C(=O)NCc1ccc(NC23CC4CC(CC(C4)C2)C3)cc1` [Compound 321], for which, in data set [1], the MIC80 is less than 1 µM.

For `CCc1nc2cc(Cl)ccn2c1C(=O)NCc1ccc(NC23CC4CC(CC(C4)C2)C3)cc1` [Compound 322], in data set [1], the MIC80 is less than 1 µM.

As to `CCc1nc2ccc(Cl)cn2c1C(=O)NCc1ccc(NC2C3CC4CC(C3)CC2C4)cc1` (stereo not drawn) [Compound 323], the MIC80 in data set [1] was less than 1 µM.

As for `CCc1nc2cc(Cl)ccn2c1C(=O)NCc1ccc(NC2C3CC4CC(C3)CC2C4)cc1` (stereo not drawn) [Compound 324], the MIC80 in data set [1] was less than 1 µM.

In the case of `Cc1nc2ccc(Cl)cn2c1C(=O)NCc1ccc(N2CCC(c3ccc(F)cc3)CC2)cc1` [Compound 325], in data set [1], the MIC80 was less than 1 µM.

As for `Cc1ccc(C2CCN(c3ccc(CNC(=O)c4c(C)nc5ccc(Cl)cn45)cc3)CC2)cc1` [Compound 326], in data set [1], the MIC80 was less than 1 µM.

As to `Cc1nc2ccc(Cl)cn2c1C(=O)NCc1ccc(N2CCC(c3ccc(C(F)(F)F)cc3)CC2)cc1` [Compound 327], in data set [1], the MIC80 was less than 1 µM.

On to `Cc1nc2ccc(Cl)cn2c1C(=O)NCc1ccc(N2CCC(c3ccc(OC(F)(F)F)cc3)CC2)cc1` [Compound 328], for which, in data set [1], the MIC80 was less than 1 µM.

Take `CCc1nc2cc(Cl)ccn2c1C(=O)NCc1cccc(C(=O)NCc2ccc(F)cc2)c1` [Compound 329]: in data set [1], the MIC80 was in the range of 1 to 20 µM (≈ 0.465 to 9.3 µg/mL).

Turning to `CCc1nc2cc(Cl)ccn2c1C(=O)NCc1cccc(C(=O)N(C)Cc2ccc(F)cc2)c1` [Compound 330], the MIC80 in data set [1] was in the range of 1 to 20 µM (≈ 0.479 to 9.58 µg/mL).

As for `CCc1nc2ccc(Cl)cn2c1C(=O)NCc1ccc2oc(CN3CCOCC3)nc2c1` [Compound 331], the MIC80 in data set [1] lay in the range of 1 to 20 µM (≈ 0.454 to 9.08 µg/mL).

As for `CCc1nc2cc(Cl)ccn2c1C(=O)NCc1ccc2oc(CN3CCOCC3)nc2c1` [Compound 332], in data set [1], the MIC80 is 1 to 20 µM (≈ 0.454 to 9.08 µg/mL).

Turning to `CCc1nc2cc(Cl)ccn2c1C(=O)NCc1ccc(-c2ccc(C(=O)O)cc2)cc1` [Compound 335], the MIC80 in data set [1] was less than 1 µM.

For `CCc1nc2ccc(Cl)cn2c1C(=O)NCc1ccc(N2CCC(C(=O)OCCN3CCOCC3)CC2)cc1` [Compound 336], in data set [1], the MIC80 is less than 1 µM.

On to `CCc1nc2cc(Cl)ccn2c1C(=O)NCc1ccc(N2CCC(C(=O)OCCN3CCOCC3)CC2)cc1` [Compound 337], for which, in data set [1], the MIC80 was less than 1 µM.

Turning to `CCC1N=C2C=CC(Cl)=CN2C1C(=O)NCc1ccc2oc(C)nc2c1` (stereo not drawn) [Compound 338], in data set [1], the MIC80 was less than 1 µM.

On to `CCc1nc2cc(Cl)ccn2c1C(=O)NCc1ccc2oc(C)nc2c1` [Compound 339], for which the MIC80 in data set [1] lay in the range of 1 to 20 µM (≈ 0.369 to 7.38 µg/mL).

For the molecule `CCc1nc2ccc(Cl)cn2c1C(=O)NCc1ccc(N2CC[C@@H](Oc3ccc(Cl)cc3)C2)cc1` [Compound 340], the MIC80 in data set [1] was less than 1 µM.

In the case of `CCc1nc2cc(Cl)ccn2c1C(=O)NCc1ccc(N2CC[C@@H](Oc3ccc(Cl)cc3)C2)cc1` [Compound 341], in data set [1], the MIC80 is less than 1 µM.

As for `CCc1nc2ccc(Cl)cn2c1C(=O)NCc1ccc(N2CC[C@H](Oc3ccc(Cl)cc3)C2)cc1` [Compound 342], the MIC80 in data set [1] is less than 1 µM.

With `CCc1nc2cc(Cl)ccn2c1C(=O)NCc1ccc(N2CC[C@H](Oc3ccc(Cl)cc3)C2)cc1` [Compound 343], the MIC80 in data set [1] was less than 1 µM.

Regarding `CCc1nc2ccc(Cl)cn2c1C(=O)NCc1ccc(N2CCC(c3ccc(C(=O)OC)cc3)CC2)cc1` [Compound 344], the MIC80 in data set [1] was less than 1 µM.

Regarding `CCc1nc2ccc(Cl)cn2c1C(=O)NCc1ccc(N2CCC(c3ccc(CO)cc3)CC2)cc1` [Compound 345], the MIC80 in data set [1] was less than 1 µM.

Turning to `CCc1nc2ccc(Cl)cn2c1C(=O)NCc1ccc(N2CCC(c3ccc(C=O)cc3)CC2)cc1` [Compound 346], in data set [1], the MIC80 is less than 1 µM.

Turning to `Cc1nc2cc(F)ccn2c1C(=O)NCc1ccc(N2CCC(c3ccc(Cl)cc3)CC2)cc1` [Compound 348], the MIC80 in data set [1] was less than 1 µM.

Take `Cc1nc2cc(F)ccn2c1C(=O)NCc1ccc(N2CCC(c3ccc(C(F)(F)F)cc3)CC2)cc1` [Compound 349]: the MIC80 in data set [1] was less than 1 µM.

Turning to `Cc1nc2cc(F)ccn2c1C(=O)NCc1ccc(N2CCC(c3ccc(OC(F)(F)F)cc3)CC2)cc1` [Compound 350], the MIC80 in data set [1] was less than 1 µM.
